We go through 18 compounds from US12662451B2, “Chemical compounds and uses thereof” (GLAXOSMITHKLINE INTELLECTUAL PROPERTY (NO.4) LIMITED, priority 2023, dated 2026).

In assay [1] the target is T1, recombinant full-length WRN protein (1-1432) (Homo sapiens, UniProt Q14191).
T1 construct: recombinant full-length WRN protein (1-1432)
The assay is described as follows: WRN unwinding activity, fluorogenic 384-well assay (Example A). The format is biochemical. To be noted: WRN unwinding activity, 4 hr; Table 2; read-out: 4 hr UNW pIC50 (converted). Here is the method:
Functional WRN unwinding activity can be measured using a fluorogenic plate based 384 well assay configured to measure the separation of labeled double stranded DNA substrate. Compounds were dosed out in neat DMSO with a 1:3 serial dilution scheme. 100 nL of compound was stamped into Greiner low volume black assay plates (Greiner Cat #784076) using the Echo Acoustic Dispenser to generate assay ready plates. All solutions were prepared in assay buffer (25 mM TRIS (pH8.0), 5 mM NaCl, 2 mM MgCl2, 1 mM DTT, 0.05% BSA) for this 10 μL low volume reaction. To prepare the solutions, a 2×WRN Enzyme cocktail was made containing 200 pM of recombinant full-length WRN protein (1-1432). A 2× Substrate cocktail was made to consist of both 200 μM ATP (any ultrapure ATP sample) and 12 nM of the fluorescent quenched labeled double stranded DNA oligomer (IDT Custom synthesis; 5′-5IABkFQ (SEQ ID NO. 1)/GCACTGGCCGTCGTTTTACGGTCGTGACT-3′ (SEQ ID NO. 2): 5′-TTTTTTACTTAACGACGGCCAGTGC (SEQ ID NO. 3)/36-TAMTSP/-3′ (SEQ ID NO. 4)). To start the reaction, 5 μL of assay buffer was added to a single column to serve as the low control. Following this, 5 μL of 2×WRN Enzyme was added in all wells except the buffer low control wells. The reaction plate was covered and incubated at ambient temperature for 4 hours to allow for time dependent inhibition if it existed. After 4 hours, the addition of 5 μL of 2×-ATP/DNA substrate cocktail was added across all wells of the assay plate. This initiated the reaction, as the plate was incubated at ambient temperature for 60 minutes for the unwinding reaction to occur. A 10 mM EDTA solution was prepared and added at 5 μL across the entire plate after 60 minutes to quench the samples for an endpoint measurement. Fluorescent intensity was measured using excitation and emission wavelengths of 525 nm and 598 nm, respectively. High florescent intensity (DMSO with buffer) represents full inhibition of unwinding activity and low florescent intensity (DMSO with enzyme) represents no inhibition of unwinding activity. The potency of the compounds was determined using a four-parameter inhibition model to generate pIC50, Hill Slope, maximum inhibition (see Table 2).

The subject of assay [2] is SW48 human colorectal cancer cells (MSI-H cancer cells). In words: SW48 cell viability, CellTiter-Glo, 120 hours (Example B). To be noted: Homo sapiens, SW48, 120 h, read-out: SW48 pCC50, SW48 cell viability, 120 hours incubation (converted); Table 2. On the technique in general: In ATP-based viability assays light output follows the ATP content of the culture.

T1 sequence (Q14191 whole entry): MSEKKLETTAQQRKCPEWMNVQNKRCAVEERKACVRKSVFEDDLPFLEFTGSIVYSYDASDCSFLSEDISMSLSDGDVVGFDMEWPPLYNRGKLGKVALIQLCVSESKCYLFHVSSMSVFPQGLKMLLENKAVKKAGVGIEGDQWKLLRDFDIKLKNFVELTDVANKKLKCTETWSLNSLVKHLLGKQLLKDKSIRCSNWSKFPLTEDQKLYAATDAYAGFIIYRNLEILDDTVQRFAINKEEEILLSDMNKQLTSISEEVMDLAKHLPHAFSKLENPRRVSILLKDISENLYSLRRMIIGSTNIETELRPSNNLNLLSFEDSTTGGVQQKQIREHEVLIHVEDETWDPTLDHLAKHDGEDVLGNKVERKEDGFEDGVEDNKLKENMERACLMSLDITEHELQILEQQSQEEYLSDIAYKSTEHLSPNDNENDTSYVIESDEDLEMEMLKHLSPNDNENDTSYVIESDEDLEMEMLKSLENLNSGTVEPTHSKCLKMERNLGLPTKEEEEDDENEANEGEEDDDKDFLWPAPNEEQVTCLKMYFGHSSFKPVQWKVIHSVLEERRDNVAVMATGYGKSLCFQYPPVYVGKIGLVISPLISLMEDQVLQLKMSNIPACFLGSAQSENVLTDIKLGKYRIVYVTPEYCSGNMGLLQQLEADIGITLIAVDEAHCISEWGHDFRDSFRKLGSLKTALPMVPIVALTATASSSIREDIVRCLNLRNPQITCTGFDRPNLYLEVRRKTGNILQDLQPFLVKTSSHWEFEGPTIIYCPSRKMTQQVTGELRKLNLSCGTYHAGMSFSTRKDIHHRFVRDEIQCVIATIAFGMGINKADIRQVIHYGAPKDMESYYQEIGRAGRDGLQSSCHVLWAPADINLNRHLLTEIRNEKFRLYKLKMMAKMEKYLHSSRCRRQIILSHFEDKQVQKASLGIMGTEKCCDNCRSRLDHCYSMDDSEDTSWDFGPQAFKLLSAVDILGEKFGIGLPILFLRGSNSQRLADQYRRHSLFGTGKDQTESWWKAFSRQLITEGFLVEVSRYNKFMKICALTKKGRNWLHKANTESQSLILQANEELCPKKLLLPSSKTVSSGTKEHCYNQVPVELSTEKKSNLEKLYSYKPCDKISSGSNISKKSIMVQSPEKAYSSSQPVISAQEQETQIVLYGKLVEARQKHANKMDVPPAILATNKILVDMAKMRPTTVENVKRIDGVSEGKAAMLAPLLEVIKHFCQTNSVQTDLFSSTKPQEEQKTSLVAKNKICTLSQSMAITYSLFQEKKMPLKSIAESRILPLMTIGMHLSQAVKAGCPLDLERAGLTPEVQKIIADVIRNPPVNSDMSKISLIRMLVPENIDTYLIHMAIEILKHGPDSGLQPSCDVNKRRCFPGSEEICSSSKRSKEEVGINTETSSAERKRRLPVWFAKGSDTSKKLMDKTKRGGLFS

Turning to `O=C(O)[C@@H]1[C@@H](c2ccc([C@H]3CCCOCC3)cc2)CCC[C@H]1C(=O)Nc1ccc(C(F)(F)F)cc1F` (racemic) [Example 59, 1:1 Mixture of (1R,2R,6S)-2-((2-fluoro-4-(trifluoromethyl)phenyl)carbamoyl)-6-(4-((S)-oxepan-4-yl)phenyl)cyclohexane-1-carboxylic acid AND (1R,2R,6S)-2-((2-fluoro-4-(trifluoromethyl)phenyl)carbamoyl)-6-(4-((R)-oxepan-4-yl)phenyl)cyclohexane-1-carboxylic acid], in assay [1], the IC50 was 794 nM. Turning to `O=C(O)[C@@H]1[C@@H](c2ccc([C@H]3CC34CCOCC4)cc2)CCC[C@H]1C(=O)Nc1ccc(C(F)(F)F)cc1F` (racemic) [Example 65, 1:1 Mixture of (1R,2S,6R)-2-(4-((S)-6-oxaspiro[2.5]octan-1-yl)phenyl)-6-((2-fluoro-4-(trifluoromethyl)phenyl)carbamoyl)cyclohexane-1-carboxylic acid AND (1R,2S,6R)-2-(4-((R)-6-oxaspiro[2.5]octan-1-yl)phenyl)-6-((2-fluoro-4-(trifluoromethyl)phenyl)carbamoyl)cyclohexane-1-carboxylic acid], the IC50 in assay [1] is 50.1 nM. In the case of `C=CC1COC[C@@H]1c1ccc([C@H]2CCC[C@@H](C(=O)Nc3ccc(C(F)(F)F)cc3F)[C@@H]2C(=O)O)cc1` (mixture of isomers) [Example 66, 1:1 Mixture of (1R,2R,6S)-2-((2-fluoro-4-(trifluoromethyl)phenyl)carbamoyl)-6-(4-((3S)-4-vinyltetrahydrofuran-3-yl)phenyl)cyclohexane-1-carboxylic acid AND (1R,2R,6S)-2-((2-fluoro-4-(trifluoromethyl)phenyl)carbamoyl)-6-(4-((3R)-4-vinyltetrahydrofuran-3-yl)phenyl)cyclohexane-1-carboxylic acid], the IC50 in assay [1] is 2510 nM. Still for that read-out and setting: as for `COC(=O)[C@H]1C[C@H]1c1ccc([C@H]2CCC[C@@H](C(=O)Nc3ccc(C(F)(F)F)cc3F)[C@@H]2C(=O)O)cc1` (racemic) [Example 67, 1:1 Mixture of (1R,2R,6S)-2-((2-fluoro-4-(trifluoromethyl)phenyl)carbamoyl)-6-(4-((1R,2S)-2-(methoxycarbonyl)cyclopropyl)phenyl)cyclohexane-1-carboxylic acid AND (1R,2R,6S)-2-((2-fluoro-4-(trifluoromethyl)phenyl)carbamoyl)-6-(4-((1S,2S)-2-(methoxycarbonyl)cyclopropyl)phenyl)cyclohexane-1-carboxylic acid], the figure is 2000 nM; as for `O=C(O)[C@@H]1[C@@H](c2ccc([C@H]3[C@@H]4CNCC[C@@H]43)cc2)CCC[C@H]1C(=O)Nc1ccc(C(F)(F)F)cc1F` (racemic) [Example 70], 15800 nM.

Regarding `Cc1nc2cc(S(=O)(=O)N(C)c3ccc([C@H]4CCC[C@H](C(=O)Nc5ccc(C(C)C)cc5)[C@@H]4C(=O)O)cc3)ccc2n1C` (racemic) [Example 72, rac-(1R,2S,6S)-2-((4-isopropylphenyl)carbamoyl)-6-(4-((N,1,2-trimethyl-1H-benzo[d]imidazole)-5-sulfonamido)phenyl)cyclohexane-1-carboxylic acid], in assay [1], the IC50 is 3.16 nM. Same read-out and setting: as for `Cc1nc2cc(S(=O)(=O)N(C)c3ccc([C@H]4CCC[C@@H](C(=O)NC56CC(C)(C5)C6)[C@@H]4C(=O)O)cc3)ccc2n1C` (racemic) [Example 178], the figure is 5010 nM; as for `Cc1nc2cc(S(=O)(=O)N(C)c3ccc([C@H]4CCC[C@@H](CNc5ccc(C(C)C)cc5)[C@@H]4C(=O)O)cc3)ccc2n1C` (racemic) [Example 200, rac-(1R,2R,6S)-2-(((4-isopropylphenyl)amino)methyl)-6-(4-((N,1,2-trimethyl-1H-benzo[d]imidazole)-5-sulfonamido)phenyl)cyclohexane-1-carboxylic acid], 12.6 nM; as for `Cc1nc2cc(S(=O)(=O)N(C)c3ccc([C@H]4CCC[C@@H](CN5CC6(C5)CC(F)(F)C6)[C@@H]4C(=O)O)cc3)ccc2n1C` (racemic) [Example 201, rac-(1R,2R,6S)-2-((6,6-difluoro-2-azaspiro[3.3]heptan-2-yl)methyl)-6-(4-((N,1,2-trimethyl-1H-benzo[d]imidazole)-5-sulfonamido)phenyl)cyclohexane-1-carboxylic acid], 25100 nM. In the case of `Cc1nc2cc(S(=O)(=O)N(C)c3ccc([C@H]4CCC[C@@H](CN(C)C5CCOCC5)[C@@H]4C(=O)O)cc3)ccc2n1C` (racemic) [Example 202, rac-(1R,2R,6S)-2-((methyl(tetrahydro-2H-pyran-4-yl)amino)methyl)-6-(4-((N,1,2-trimethyl-1H-benzo[d]imidazole)-5-sulfonamido)phenyl)cyclohexane-1-carboxylic acid], the IC50 in assay [1] is 100000 nM.

For the compound `O=C(O)[C@@H]1[C@@H](c2ccc(N3CCCCC3)cc2)CCC[C@H]1C(=O)Nc1ccc(C(F)(F)F)cc1F` (racemic) [Example 222, rac-(1R,2R,6S)-2-((2-fluoro-4-(trifluoromethyl)phenyl)carbamoyl)-6-(4-(piperidin-1-yl)phenyl)cyclohexane-1-carboxylic acid], in assay [1], the IC50 was 501 nM. As for `O=C(O)[C@@H]1[C@@H](c2ccc(N3CCC4(CC3)CO4)cc2)CCC[C@H]1C(=O)Nc1ccc(C(F)(F)F)cc1F` (racemic) [Example 228, rac-(1R,2S,6R)-2-(4-(1-oxa-6-azaspiro[2.5]octan-6-yl)phenyl)-6-((2-fluoro-4-(trifluoromethyl)phenyl)carbamoyl)cyclohexane-1-carboxylic acid], in assay [1], the IC50 is 6310 nM. Take `COCCOc1cc([C@H]2CCC[C@@H](C(=O)Nc3ccc(C(F)(F)F)cc3F)[C@@H]2C(=O)O)ccc1C(F)(F)F` (racemic) [Example 234, rac-(1R,2R,6S)-2-((2-fluoro-4-(trifluoromethyl)phenyl)carbamoyl)-6-(3-(2-methoxyethoxy)-4-(trifluoromethyl)phenyl)cyclohexane-1-carboxylic acid]: the IC50 in assay [1] is 1000 nM.

Take `COc1cc(C(F)(F)F)ccc1[C@H]1CCC[C@@H](C(=O)Nc2ccc(C(F)(F)F)cc2F)[C@@H]1C(=O)O` (racemic) [Example 237, rac-(1R,2R,6S)-2-((2-fluoro-4-(trifluoromethyl)phenyl)carbamoyl)-6-(2-methoxy-4-(trifluoromethyl)phenyl)cyclohexane-1-carboxylic acid]: in assay [1], the IC50 is 200 nM. As to `CC(C)(O)C#Cc1cc([C@H]2CCC[C@@H](C(=O)Nc3ccc(C(F)(F)F)cc3F)[C@@H]2C(=O)O)ccc1C(F)(F)F` (racemic) [Example 239, rac-(1R,2R,6S)-2-((2-fluoro-4-(trifluoromethyl)phenyl)carbamoyl)-6-(3-(3-hydroxy-3-methylbut-1-yn-1-yl)-4-(trifluoromethyl)phenyl)cyclohexane-1-carboxylic acid], the IC50 in assay [1] was 251 nM. Turning to `Cc1nc2cc(S(=O)(=O)N(C)c3ccc([C@H]4CN(CC(F)(F)F)C[C@@H](C(=O)Nc5ccc(C(F)(F)F)cc5F)[C@@H]4C(=O)O)cc3)ccc2n1C` (relative stereo) [Example 358, rel-(3R,4S,5R)-3-((2-fluoro-4-(trifluoromethyl)phenyl)carbamoyl)-1-(2,2,2-trifluoroethyl)-5-(4-((N,1,2-trimethyl-1H-benzo[d]imidazole)-5-sulfonamido)phenyl)piperidine-4-carboxylic acid], in assay [2], the CC50 is 0.631 µM. `Cc1nc2cc(S(=O)(=O)N(C)c3ccc([C@H]4C[C@H](N5CCC[C@H](F)C5)C[C@@H](C(=O)Nc5ccc(C(F)(F)F)cc5F)[C@@H]4C(=O)O)cc3)ccc2n1C` (stereo in doubt) [Example 351, rel-(1R*,2R*,4S*,6S*)-2-((2-fluoro-4-(trifluoromethyl)phenyl)carbamoyl)-4-((S)-3-fluoropiperidin-1-yl)-6-(4-((N,1,2-trimethyl-1H-benzo[d]imidazole)-5-sulfonamido)phenyl)cyclohexane-1-carboxylic acid]: the CC50 in assay [2] was 10 µM.

In the case of `Cc1nc2cc(S(=O)(=O)N(C)c3ccc([C@@H]4C[C@@H]5COC[C@@H]5[C@H](C(=O)Nc5ccc(C(F)(F)F)cc5F)[C@H]4C(=O)O)cc3)ccc2n1C` (stereo in doubt) [Example 391, rel-(3aR,4R,5R,6S,7aR)-4-((2-fluoro-4-(trifluoromethyl)phenyl)carbamoyl)-6-(4-((N,1,2-trimethyl-1H-benzo[d]imidazole)-5-sulfonamido)phenyl)octahydroisobenzofuran-5-carboxylic acid], the CC50 in assay [2] is 20 µM.
